Measured values taken from patent publication US8092842B2, “Extraction of phytochemicals by enzymatic hydrolysis” (Pos Pilot Plant Corporation, priority 2007, dated 2012).

Tested on: lymphocytes isolated from Balb/C mice
Experiment: lymphocyte cell proliferation assay
Format: cell-based
Settings: LPS at 1 μg/ml (table prints concentration n/a)
Description: The effects of the ginseng extracts produced during these studies, on cell proliferation of lymphocytes isolated from Balb/C mice were assessed by the methods disclosed in Chapters 2 and 3 in Current Protocols in Immunology, (Coligan et al., Eds, 2007, John Wiley & Sons). A first positive control was lipopolysaccharide (LPS) at a concentration of 1 μg/ml. LPS (Prod. L4641) was supplied by Sigma-Aldrich Canada (Oakville, ON, Canada). A commercially available poly-furanosyl-pyranosyl-saccharide-rich ginseng extract, Cold-FX® (Cold-FX is a registered trademark of CV Technologies Inc., Edmonton, Alberta, Canada), was obtained from a local supermarket, and was used for comparison as a second positive control. The effects of the positive controls and the ginseng extracts produced by the three studies described herein on cell proliferation are shown in Table 1. […]
The bioactivity of the dried ginseng extract produced with the pilot scale process disclosed herein was assessed using the assay, related methods, positive and negative controls as described in Example 1.
The biological activity of the dried ginseng extracts produced from alcohol-washed dried ginseng meal during the first study of this example was assessed using the assay and methods described in Example 1, and the results compared to the positive control #2 described in Example 1.

In the case of “lipopolysaccharide [Positive control #1 (LPS)]”, the “Optical Density (lymphocyte cell proliferation)” value is reported as 0.361.
